Measurements published in patent US6706745B1, “Biphenylamidine derivatives” (Teijin Limited, priority 1997, dated 2004).
Structures can show the parent of a compound that is named as a salt.

How the values were obtained:
[1] = target: human FXa (Homo sapiens, UniProt P00742); test: Determination of inhibiting activity of activated blood coagulation factor X (FXa), chromogenic substrate S-2765; type: biochemical; conditions: substrate S-2765, 30 min incubation, A405, read-out: Fxa inhibition activity IC50
Experimental: (1) Determination of Inhibiting Activity of Activated Blood Coagulation Factor X (FXa):
The substance for analysis was dissolved in water or water wherein a suitable concentration of organic solvents (DMSO ethanol or .methanol) had been added, as a specimen. To 70 μL of the specimen serially diluted with water, 90 μL of 100 mM Tris buffer (pH 8.4), 20 μL of 50 mM Tris buffer (pH 8.4) containing 50 mU/mL human FXa, and 2 mM substrate (Daiichi Chemical S-2765) were added and incubated for 30 min., 50 μL of 50% acetic acid was added, and the absorbance (A405) were determined. As a blank, Tris buffer was added instead of FXa while, as a control, water was added instead of the specimen. The 50% inhibition activity (IC50) was determined as the indication of FXa inhibiting activity.

[2] = target: T1, human thrombin (Homo sapiens, UniProt P00734); test: Determination of thrombin inhibiting activity, chromogenic substrate S-2238; type: biochemical; conditions: substrate S-2238, 30 min incubation, A405, read-out: Thrombin inhibition activity IC50
T1 construct: 1 U/mL human thrombin
Experimental: (2) Determination of Thrombin Inhibiting Activity:
To 70 μL of the specimen serially diluted with water, 90 μL of 100 mM Tris buffer (pH 8.4), 20 μL of 50 mM Tris buffer (pH 8.4) containing 1 U/mL human thrombin, and 2 mM substrate (Daiichi Chemical S-2238) were added and incubated for 30 min., 50μL of 50% acetic acid was added, and the absorbance (A405) were determined. As, a blank, Tris buffer was added instead of thrombin while as a control, water is added instead of the specimen. The 50% inhibition activity (IC50) was determined as the indication of thrombin inhibiting activity.

[3] = test system: normal human plasma; test: Determination of anticoagulation activity (APTT); type: biochemical; conditions: concentration corresponding to 2-fold elongation of coagulation time
Experimental: (3) Determination of Anticoagulation Activity (APTT):
To 100 μL of normal human plasma (Ci-Trol®) manufactured by DADE, 100 μL of the specimen was added, and incubated at 37° C. for 1 minute. To this solution, 100 μL of APTT reagent (manufactured by DADE) which was, retained at 37° C. was added, and after incubating at 37° C. for 2 minutes, 100 μL of 25 mM calcium chloride solution was added, and the coagulation time was determined using the coagulation measurement apparatus manufactured by AMELUNG. The coagulation time when physiological salt solution was added instead of the analyte is used as a control, the concentration of the specimen corresponding to the 2-fold elongation of this coagulation time (CT2) is calculated, and this value is used as,the indication of the anticoagulation activity.

[4] = target: T2, human acetylcholine esterase (Homo sapiens, UniProt P22303); test: Determination of acetylcholine esterase (AChE) inhibiting activity; type: biochemical; conditions: read-out: AChE inhibition activity IC50
T2 construct: purchased Sigma C-5400
Experimental: (4) Determination of Acetylcholine Esterase (AChE) Inhibiting Activity
The substance for analysis was dissolved in distilled water as specimen. To 50 μL of the specimen serially diluted, 50 μL of enzyme solution, wherein human acetylcholine esterase (manufactured by Sigma, C-5400) had been dissolved in distilled water at 0.1 U/mL was added. To this solution, 50 μL of the solution which was prepared by dissolving 5,5′-dithiobis (manufactured by Nacarai Tesque, 141-01) in phosphate buffer (0.1M NaH2PO4—Na2HPO4, pH 7.0) at 0.5 mM is,added and mixed, and reacted with 50 μL of the solution wherein acetylthiocholine iodide (Wako Company, 017-09313) had been dissolved in phosphate buffer at 3 mM, at room temperature. As a control distilled water was added instead of the substance for analysis and the absorbance (A450) was determined over time. As a blank, phosphate buffer was added instead of the enzyme solution and the 50% inhibition activity (IC50),was determined.

[5] = Determination of bioavailability (BA) in mouse; type: in vivo; conditions: fasted male ICR mice; oral 10 mg/kg vs intravenous 3 mg/kg; from plasma AUC
Experimental: (5) Determination of Bioavailability (BA):
The substance for analysis was dissolved in distilled water (for oral administration; 10 mg/kg) or physiological salt solution (for intravenous administration; 3 mg/kg) to prepare a solution for administration. This solution was administered to fasted ICR mice (male, 6 weeks aged), the whole blood was extracted from the heart under ether anesthesia at 5 min. (intravenous administration group only), 15 min., 30 min., 1 hr., 2 hr. and 4 hr. after the administration, and the plasma was separated by the centrifugation (3,500 rpm, 30 min., 4° C.) to produce the specimen (n=4). Using the above method for determining FXa inhibiting activity, the calibration curve for the substance for analysis was previously prepared and the concentration of the substance for analysis in the specimen was determined. The lower area of the concentration in plasma—time curve (AUC) was calculated and then the bioavailavility in the mouse (BA) was calculated according to the following formula: [formula]

Chain of human FXa (P00742 235-488 limits assumed): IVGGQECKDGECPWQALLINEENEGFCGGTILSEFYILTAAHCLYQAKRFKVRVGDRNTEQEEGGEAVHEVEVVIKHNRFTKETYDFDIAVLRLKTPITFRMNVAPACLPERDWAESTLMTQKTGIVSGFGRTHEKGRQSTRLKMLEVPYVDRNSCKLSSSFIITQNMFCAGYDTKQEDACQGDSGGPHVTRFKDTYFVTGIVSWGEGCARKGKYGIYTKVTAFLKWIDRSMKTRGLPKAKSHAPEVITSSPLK
Chain of human FXa (P00742 41-179 partner limits assumed): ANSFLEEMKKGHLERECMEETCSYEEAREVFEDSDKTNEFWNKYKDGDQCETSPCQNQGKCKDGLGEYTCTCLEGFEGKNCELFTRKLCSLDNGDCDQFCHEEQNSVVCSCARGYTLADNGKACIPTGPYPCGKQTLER
T2 sequence (P22303 32-617 isoform P22303-2 limits assumed): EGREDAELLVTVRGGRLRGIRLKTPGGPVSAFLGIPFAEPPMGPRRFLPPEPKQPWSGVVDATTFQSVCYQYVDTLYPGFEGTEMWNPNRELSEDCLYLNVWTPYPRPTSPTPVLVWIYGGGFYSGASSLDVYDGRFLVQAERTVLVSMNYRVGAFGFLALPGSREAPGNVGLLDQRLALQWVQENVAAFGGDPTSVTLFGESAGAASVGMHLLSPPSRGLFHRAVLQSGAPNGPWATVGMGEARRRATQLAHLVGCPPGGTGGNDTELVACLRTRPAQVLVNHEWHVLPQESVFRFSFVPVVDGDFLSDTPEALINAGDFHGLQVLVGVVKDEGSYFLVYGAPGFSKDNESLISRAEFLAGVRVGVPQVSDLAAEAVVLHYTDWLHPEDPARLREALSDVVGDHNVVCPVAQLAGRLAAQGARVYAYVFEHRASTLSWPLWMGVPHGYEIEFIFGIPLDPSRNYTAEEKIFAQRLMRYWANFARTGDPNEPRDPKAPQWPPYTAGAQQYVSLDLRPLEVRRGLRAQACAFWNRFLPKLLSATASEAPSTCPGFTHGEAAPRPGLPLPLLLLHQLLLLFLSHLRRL

Row | Structure (SMILES) | IC50 [1] [µM] | IC50 [2] [µM] | APTT CT2 [3] [µM] | IC50 [4] [µM] | Mouse BA [5] [%]
1 | N=C(N)c1cccc(-c2cc(CNCC3CCN(CCO)CC3)cc(C(=O)O)c2)c1 [Example 72] | 1.2 | > 1000 | 11 | > 250 | 13
2 | CC(=N)N1CCC(CN(C)Cc2cc(C(=O)O)cc(-c3cccc(C(=N)N)c3)c2)CC1 [Example 74] | 0.59 | > 1000 | 5.4 | 150 | 13
3 | CC(=N)N1CCC(CNCc2cc(C(=O)O)cc(-c3cccc(C(=N)N)c3)c2)CC1 [Example 70] | 0.19 | > 1000 | 2.0 | 140 | 11
4 | CC(=N)N1CCC(CN(CCO)Cc2cc(C(=O)O)cc(-c3cccc(C(=N)N)c3)c2)CC1 [Example 81] | 0.21 | 820 | 2.8 | 130 | 7
5 | CC(=N)N1CCC(COCc2cc(CCC(=O)O)cc(-c3cccc(C(=N)N)c3)c2)CC1 [Example 82] | 0.13 | > 1000 | 1.9 | 170 | 11
6 | CC(=N)N1CCC(COCc2cc(C(=O)O)cc(-c3cccc(C(=N)N)c3)c2)CC1 [Example 61, 3-(3-Amidinophenyl)-5-[(1-acetoimidoyl-4-piperidinyl)methoxymethyl]benzoic Acid.hydrochloride] | 0.063 | > 1000 | 0.76 | 49 | 10
7 | N=C(N)c1cccc(-c2cc(CNCC3CCCCC3)cc(C(=O)O)c2)c1 [Example 73] | 1.7 | > 1000 | 13 | > 250 | 
